Measured values as given in US10723711B2, “1,1,1-trifluoro-3-hydroxypropan-2-yl carbamate derivatives and 1,1,1-trifluoro-4-hydroxybutan-2-yl carbamate derivatives as MAGL inhibitors” (PFIZER INC., priority 2015, dated 2020).
Where two headings read alike, the source gives them in different places.

Assays:
[1] = target: T1, human recombinant Monoacylglycerol Lipase (Homo sapiens, UniProt Q99685); test: MAGL inhibition enzymatic assay, fluorogenic substrate 7-HCA, IC50 at T=0 min or after 30 minute incubation (T=30 min); format: biochemical; settings: geometric mean of 2-4 determinations unless otherwise indicated
T1 sequence (Q99685 1-303): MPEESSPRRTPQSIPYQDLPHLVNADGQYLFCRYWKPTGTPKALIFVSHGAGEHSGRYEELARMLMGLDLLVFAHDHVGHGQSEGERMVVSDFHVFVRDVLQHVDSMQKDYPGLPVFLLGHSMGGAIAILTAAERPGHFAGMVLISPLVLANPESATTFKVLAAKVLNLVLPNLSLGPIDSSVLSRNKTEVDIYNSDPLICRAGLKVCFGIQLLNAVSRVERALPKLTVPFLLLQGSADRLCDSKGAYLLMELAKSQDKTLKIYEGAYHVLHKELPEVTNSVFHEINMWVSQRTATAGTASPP
Procedure: An equal volume of 7-HCA in assay buffer with 10% DMSO was added either immediately (T=0 min) or after a 30 minute incubation (T=30 min) to initiate the reaction. […] After these dilutions, the final concentration of the test compound ranged from 3 μM to 0.03 nM. […] IC50 values were generated based on a four parameter fit model using ABASE software from IDBS.

[2] = target: T1, human recombinant Monoacylglycerol Lipase; test: MAGL inactivation, enzyme progress curves, kinact/KI; format: biochemical; settings: from enzyme progress curves, T = 0 min protocol; geometric mean of 2-4 determinations unless otherwise indicated
Summary of the method: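 Human recombinant MAGL ([…]) with compound, 7-HCA substrate (final 5 μM) added immediately (T=0 min), in pH 7.4 HEPES buffer with 0.1% Triton X-100 and 25% glycerin. Fluorescence (Ex/Em 340/465) was read every minute over 60 min, giving progress curves at decreasing compound concentrations (final 3 μM to 0.03 nM).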

human recombinant FAAH = target: T2, human recombinant FAAH (Homo sapiens, UniProt O00519); test: FAAH inhibition enzymatic assay, fluorescent substrate Arachidonoyl-AMC, 30 minute incubation; format: biochemical; settings: T = 30 min (30 minute incubation); geometric mean of 2-4 determinations unless otherwise indicated
T2 construct: purchased Cayman 10010183
T2 sequence (O00519 1-579): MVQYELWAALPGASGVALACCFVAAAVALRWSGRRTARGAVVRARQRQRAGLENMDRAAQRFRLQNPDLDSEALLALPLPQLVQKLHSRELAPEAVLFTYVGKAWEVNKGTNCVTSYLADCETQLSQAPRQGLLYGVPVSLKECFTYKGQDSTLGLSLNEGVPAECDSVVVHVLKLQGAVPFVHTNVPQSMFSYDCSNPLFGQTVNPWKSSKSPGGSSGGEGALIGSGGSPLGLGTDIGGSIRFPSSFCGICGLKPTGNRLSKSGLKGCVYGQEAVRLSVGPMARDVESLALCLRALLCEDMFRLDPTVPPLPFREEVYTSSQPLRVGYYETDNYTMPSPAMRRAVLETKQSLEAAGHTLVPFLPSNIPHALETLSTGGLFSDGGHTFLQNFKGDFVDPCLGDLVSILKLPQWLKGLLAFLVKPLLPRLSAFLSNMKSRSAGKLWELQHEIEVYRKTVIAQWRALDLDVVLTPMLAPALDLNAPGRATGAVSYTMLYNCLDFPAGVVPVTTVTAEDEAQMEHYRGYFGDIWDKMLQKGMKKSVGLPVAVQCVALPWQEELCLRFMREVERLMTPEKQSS

[3] = Prodrug in vivo pharmacokinetics in rats after intravenous administration (LC-MS-MS of prodrug and parent); settings: Example 6 (parent) in plasma, Wistar Hann rats, IV Example 32 at 2 mg/kg; for Cmax: Wistar Hann, rat, plasma, iv, 2 mg/kg
Procedure: (§1) Pharmacokinetic parameters derived from the plasma analytical data were determined using Watson LIMS 7.2.003 (Thermo Fisher Scientific, Waltham, Mass.).

[4] = Prodrug in vivo pharmacokinetics in dogs after intravenous administration (LC-MS-MS of prodrug and parent); settings: Example 6 (parent) in plasma, Beagle dogs, IV Example 32 at 1 mg/kg
Procedure: as §1

## O=C(O[C@H](CO)C(F)(F)F)N1CCC2(CC1)CN(S(=O)(=O)c1ccc(F)cc1)CCO2 [Example 6, (2R)-1,1,1-Trifluoro-3-hydroxypropan-2-yl 4-[(4-fluorophenyl)sulfonyl]-1-oxa-4,9-diazaspiro[5.5]undecane-9-carboxylate]
[1]; T = 0 min (substrate added immediately), read-out: MAGL (T = 0 min) IC50
  IC50: 83 nM
[1]; T = 30 min (30 minute incubation), read-out: MAGL (T = 30 min) IC50
  IC50: 7 nM
[2]
  MAGL kinact/KI: 13406 1/s per M
Human recombinant FAAH
  IC50: > 30000 nM
other
  melting point: 132 °C
[3]; Mean
  % AUC Extrap: 3.46%
  AUC: 158 ng·h/mL
  AUC Extrap: 162 ng·h/mL
  Rate Constant: 2.22 h⁻¹
  Tmax: 3.48 min
  T½: 20.5 min
  Cmax: 309 ng/mL
[3]; Rat 03
  % AUC Extrap: 6.04%
  AUC: 102 ng·h/mL
  AUC Extrap: 109 ng·h/mL
  Rate Constant: 2.86 h⁻¹
  Tmax: 4.98 min
  T½: 14.5 min
  Cmax: 234 ng/mL
[3]; Rat 04
  % AUC Extrap: 0.880%
  AUC: 213 ng·h/mL
  AUC Extrap: 215 ng·h/mL
  Rate Constant: 1.57 h⁻¹
  Tmax: 1.98 min
  T½: 26.5 min
  Cmax: 384 ng/mL
[4]; Dog 03
  AUC: 591 ng·h/mL
  AUC Extrap: 595 ng·h/mL
  Tmax: 4.98 min
  T½: 246 min
[4]; Dog 04
  AUC: 705 ng·h/mL
  AUC Extrap: 710 ng·h/mL
  Tmax: 4.98 min
  T½: 322 min
[4]; Mean
  AUC: 648 ng·h/mL
  AUC Extrap: 653 ng·h/mL
  Tmax: 4.98 min
  T½: 284 min
